Measured values published in patent US12371453B2, “Polypeptide having antibacterial activity, composition for preventing or treating sepsis comprising same, and antibacterial composition” (priority 2019, dated 2025).
≈ marks a conversion by molar mass, not a printed value. Read-outs that look alike come from different tables or passages of the source. Square brackets hold non-standard residues; d marks the D form. Ends that are not written are not given here. Peptide text beside a SMILES is read from it.

Columns and labels:
[1] = test system: Escherichia coli DH5α (ATCC PTA-4750); test: microbe, parasite or virus in culture; settings: Escherichia coli, 4 h
Method: (§1) To compare the antibacterial activity between the four commercially available antibiotics (ampicillin, gentamicin, levofloxacin and imipenem) and the allD FP13-NH2 (AcOH) peptide, an antibacterial activity test was performed to measure the minimum inhibitory concentrations (MIC50 and MIC80) for gram-negative and gram-positive standard strains (Escherichia coli DH5α, Escherichia coli K1, Acinetobacter baumannii, Pseudomonas aeruginosa, Salmonella enteritidis, Salmonella typhimurium, and Klebsiella pneumoniae).
(§2) More specifically, 100 μL of a medium was dispensed into each well of a 96-well plate, and in the first column, an antibiotic and a peptide in 200 μL of the medium were dispensed. 1/2 serial dilution was performed from columns 1 to 11, and gram-negative and gram-positive bacteria which had been previously cultured were diluted (OD600 nm value in dilution: approximately 0.0025) and dispensed into each well. The plate was incubated in a 37° C. incubator for 4 hours, and measured at OD600 nm.

[2] = test system: Acinetobacter baumannii (ATCC 19606); test: microbe, parasite or virus in culture; settings: Acinetobacter baumannii
Method: as §1, §2

[3] = test system: Klebiella pneumoniae (ATCC 13883); test: microbe, parasite or virus in culture; settings: Klebsiella pneumoniae
Method: as §1, §2

[4] = test system: Salmonela enteritidis (ATCC 13076); test: microbe, parasite or virus in culture; settings: Salmonella enterica
Method: as §1, §2

[5] = test system: Pseudomanas aeruginosa PAO1 (ATCC 47085D-5); test: microbe, parasite or virus in culture; settings: Pseudomonas aeruginosa
Method: as §1, §2

Escherichia coli K1 = test: microbe, parasite or virus in culture; settings: Escherichia coli
Method: as §1, §2

[6] = test system: Salmonela typhimurium (ATCC 53648); test: microbe, parasite or virus in culture; settings: Salmonella enterica
Method: as §1, §2

[7] = test system: Colistin resistant AB (Acinetobactor baumannii)
Method: (§3) The antibacterial activity was evaluated according to an antibacterial activity test method for measuring the minimum inhibitory concentration 50 (MIC50; the minimal concentration that kills 50% of bacteria).
as §2, with “11” for “11,”, “five types of antibiotic-resistant” for “gram-negative and gram-positive”, “bacteria (ESBL-resistant E. coli, carbapenem-resistant A. baumannii, carbapenem-resistant Klebsiella pneumoniae, carbapenem-resistant Pseudomonas aeruginosa, colistin-resistant Acinetobactor baumannii),” for “bacteria”, “cultured,” for “cultured”

ESBL (E. coli) = test system: ESBL (E. coli)
Method: as §3
as §2, with “11” for “11,”, “five types of antibiotic-resistant” for “gram-negative and gram-positive”, “bacteria (ESBL-resistant E. coli, carbapenem-resistant A. baumannii, carbapenem-resistant Klebsiella pneumoniae, carbapenem-resistant Pseudomonas aeruginosa, colistin-resistant Acinetobactor baumannii),” for “bacteria”, “cultured,” for “cultured”

CR-Klebsiella pneumoniae = test system: CR-Klebsiella pneumoniae
Method: as §3
as §2, with “11” for “11,”, “five types of antibiotic-resistant” for “gram-negative and gram-positive”, “bacteria (ESBL-resistant E. coli, carbapenem-resistant A. baumannii, carbapenem-resistant Klebsiella pneumoniae, carbapenem-resistant Pseudomonas aeruginosa, colistin-resistant Acinetobactor baumannii),” for “bacteria”, “cultured,” for “cultured”

[8] = test system: Carbapenem resistant (CR)-Acinetobactor baumannii; test: organism not typed
Method: as §3
as §2, with “11” for “11,”, “five types of antibiotic-resistant” for “gram-negative and gram-positive”, “bacteria (ESBL-resistant E. coli, carbapenem-resistant A. baumannii, carbapenem-resistant Klebsiella pneumoniae, carbapenem-resistant Pseudomonas aeruginosa, colistin-resistant Acinetobactor baumannii),” for “bacteria”, “cultured,” for “cultured”

[9] = test system: trypsin, protease K, and chymotrypsin; settings: read out by antibacterial activity
[10] = LPS binding affinity by Isothermal Titration Calorimeter (ITC); design: species or system E. coli K1; settings: for LPS binding affinity (in words): compared with FP1 (wild type, WT); for Kd: peptide binding to LPS, read-out: Kd (calculated by ITC)
From the text: FPT (ADK 44-54) is denoted by wild type (WT), and peptides in which a point mutation occurred at various sites in WT were manufactured (FP3, FP5, FP6, and FP9). To increase the interaction with LPS in a residue sequence of FP3, peptides were designed based on FP3- and LPS-binding models (FP12-NH2 and FP13-NH2), and peptides were designed by additionally introducing a non-natural amino acid and an amino acid isomer (allomeric D-type amino acid) (allD FP12-NH2, allD FP13-NH2, allD FP-13-9a, allD FP-13-9w, allD FP-13-9k, and allD FP13-NH2 (AcOH)). In addition, an N-terminus PEGylated peptide (PEG-alld FP13-NH2 (AcOH)) was additionally designed, synthesized, and provided by ANYGEN, Co. Ltd. The binding affinity between each of the provided peptides and lipopolysaccharide (LPS) was confirmed through measuring the binding affinity (Kd) using Isothermal Titration Calorimeter (ITC).
Specifically, a method of analyzing binding affinity (Kd) between a peptide and LPS is as follows.
Measurement was carried out using a Malvern MicroCal PEAQ-ITC cell instrument, and the following pretreatment was carried out to confirm interaction with LPS. The amount and morphology of a sample cell are 300 μL and coin-shaped, fixed-in-place, respectively; a syringe rotation rate was 1,200 rpm; and a temperature was 30° C., 35° C. or 25° C.
Before the experiment, LPS and the peptide were previously diluted with PBS, thereby preparing 2 mM LPS and 0.2 mM peptide. 300 μL of the peptide was added into cells in the ITC instrument, which had been washed, and 40 μL of LPS was put into a syringe. After measurement conditions for ITC (temperature, number of injections) were set, the syringe was inserted into the cell, and ITC measurement was started. When the measurement was completed, analysis is performed, and the Kd values of LPS and the peptide were calculated.

[11] = Calcein dye leakage from liposome mimicking gram-negative bacterial cell membrane; type: biochemical; settings: calcein-encapsulated liposome
Method: (§4) To study an action mechanism for FP12-NH2, FP13-NH2, allD FP12-NH2, and allD FP13-NH2 peptides, the disruption ability of the peptides against liposomes mimicking a bacterial cell membrane and a red blood cell membrane was measured.
(§5) EYPG is an abbreviation for egg yolk L-α-phosphatidyl-DL-glycerol, and EYPC is an abbreviation for egg yolk 1,2-diacyl-sn-glycero-3-phosphocholine. CH is an abbreviation for cholesterol. After dissolving the phospholipids composed according to the content of each component in chloroform, the chloroform was removed using a rotary evaporator, and lyophilization was performed overnight. Afterward, the dried lipid film was dissolved in a Tris-buffer solution, and calcein […]. After repeated freezing and thawing, the calcein-encapsulated liposome was manufactured using an extruder. Subsequently, after an excitation wavelength of a spectrofluorimeter (Shimadzu RF 5301 PC spectrofluorimeter, Japan) was set to 490 nm, and an emission wavelength was set to 520 nm, the peptide was administered to the liposome to measure relative dye leakage, provided that a 100% dye leakage was expressed as fluorescence intensity when 0.010% Triton-X100 was added.
(§6) The upper graphs of FIG. 3 show the % dye leakage for an EYPC/EYPG (7:3, w/w) liposome mimicking bacterial cells, encapsulating a fluorescent dye, calcein, by a peptide according to a peptide concentration. […] The lower graphs of FIG. 3 show the % dye leakage for an EYPC/CH (10:1, w/w) liposome, which is […] mimicking a human red blood, encapsulating a fluorescent dye, calcein, by a peptide according to a peptide concentration.

E. coli = type: cell-based
[12] = Calcein dye leakage from liposome mimicking human red blood cell membrane; type: biochemical; settings: calcein-encapsulated liposome
Method: as §4, §5, §6

[13] = Calcein dye leakage from liposome mimicking gram-positive bacterial cell membrane; type: biochemical; settings: calcein-encapsulated liposome
Method: To study the action mechanisms for FPT2-NH2, FPT3-NH2, allD FPT2-NH2, and allD FP13-NH2 peptides, the disruption ability of the peptides against a liposome mimicking a bacterial cell membrane was measured.

A. baumannii = type: cell-based

Row | Compound | LPS binding affinity (in words) [10] | Kd [10] | dye leakage, PC/PG (7:3, w/w) liposome mimicking a bacteria cell membrane [11] | dye leakage, PC/CH liposome mimicking a red blood cell membrane [12] | MIC50, Colistin resistant AB [7] | MIC50, ESBL (E. coli) (ESBL (E. coli); ESBL) | MIC50, CR-Klebsiella pneumoniae (CR-Klebsiella pneumoniae; CR-) | dye leakage, EYPG/EYPC (6:4, w/w) liposome mimicking gram-positive bacterial cell membrane [13] | MIC50, Carbapenem resistant (CR)-Acinetobactor baumannii [8] | further results
1 | C[C@@H](O)[C@H]1C(=O)N2C(C(=O)O)=C(SCCN=CN)C[C@H]12 [Imipenem, imipenem] |  |  |  |  |  |  |  |  |  | MIC ([1]; read-out: MIC (μg/ml) 50%): < 4 µg/mL; MIC ([1]; read-out: MIC (μg/ml) 80%): < 8 µg/mL; MIC ([2]; ATCC19606, read-out: MIC (μg/ml) 50%): < 8 µg/mL; MIC ([2]; ATCC19606, read-out: MIC (μg/ml) 80%): < 15 µg/mL; MIC ([3]; ATCC13883, read-out: MIC (μg/ml) 50%): < 2 µg/mL; MIC ([3]; ATCC13883, read-out: MIC (μg/ml) 80%): < 8 µg/mL; MIC ([4]; read-out: MIC (μg/ml) 50%): < 4 µg/mL; MIC ([4]; read-out: MIC (μg/ml) 80%): < 8 µg/mL; MIC ([5]; PAO1, read-out: MIC (μg/ml) 50%): < 32 µg/mL; MIC ([5]; PAO1, read-out: MIC (μg/ml) 80%): < 64 µg/mL; MIC (Escherichia coli K1; K1, read-out: MIC (μg/ml) 50%): < 0.5 µg/mL; MIC (Escherichia coli K1; K1, read-out: MIC (μg/ml) 80%): < 1 µg/mL; MIC ([6]; read-out: MIC (μg/ml) 50%): < 4 µg/mL; MIC ([6]; read-out: MIC (μg/ml) 80%): < 8 µg/mL; MIC50, Colistin resistant AB ([7]; colistin resistant A. baumannii): No effect; MIC50, ESBL (E. coli) (ESBL (E. coli); ESBL E. coli): No effect; MIC50, CR-Klebsiella pneumoniae (CR-Klebsiella pneumoniae; CR-K. pneumoniae): No effect; MIC50, Carbapenem resistant (CR)-Acinetobactor baumannii ([8]; CR-A. baumannii): No effect
2 | CC(C)C[C@@H](NC(=O)[C@H](N)CCCNC(=N)N)C(=O)N[C@H](CCCNC(=N)N)C(=O)N[C@@H](C(=O)N[C@H](CCCCN)C(=O)N[C@H](CC(C)C)C(=O)N[C@H](CCCNC(=N)N)C(=O)N[C@H](CCCNC(=N)N)C(=O)N[C@H](Cc1ccc(O)cc1)C(=O)N[C@H](CC(C)C)C(=O)N[C@H](CCCNC(=N)N)C(N)=O)C(C)C [allD FP12-NH2] (H-[dR][dL][dR][dV][dK][dL][dR][dR][dY][dL][dR]-NH2; N-terminus assumed) | strong LPS binding affinity | 26.6 µM | high dye leakage | almost no dye leakage | <16 µg/mL | <0.5 µg/mL | <32 µg/mL | high dye leakage | <4 µg/mL | resistance to the proteolytic enzyme [9]: much improved resistance; MIC50 (E. coli): 2 µM (≈ 3.06 µg/mL); MIC90 (E. coli): 4 µM (≈ 6.11 µg/mL); MIC50 (S. aureus): 4 µM (≈ 6.11 µg/mL); MIC90 (S. aureus): 8 µM (≈ 12.2 µg/mL); MIC50 (A. baumannii): 4 µM (≈ 6.11 µg/mL); MIC90 (A. baumannii): 8 µM (≈ 12.2 µg/mL)
3 | KLRVKLRRYLR-NH2 [FP13-NH2] | strong LPS binding affinity | 118 µM | high dye leakage | almost no dye leakage | <32 µg/mL | <1 µg/mL | <16 µg/mL | high dye leakage | <8 µg/mL | 
4 | RLRVKLRRYLR-NH2 [FP12-NH2] | strong LPS binding affinity | 0.242 µM | high dye leakage | almost no dye leakage | <16 µg/mL | <0.5 µg/mL | <8 µg/mL | high dye leakage | <4 µg/mL | 
